# In patent US8258138B2, “Potassium channel blockers” (Xention Limited, priority 2008, dated 2012):
# Key:
# hKv1.5 = hKv1.5 (Homo sapiens, UniProt P22460); assay: Kv1.5 Autopatch electrophysiology (whole cell patch-clamp); type: cell-based; conditions: compound at 1 μM; room temperature (22-24° C.); total charge during step to 0 mV; read-out: hKv1.5 % inh.
# Protocol: Kv1.5 Autopatch Electrophysiology Method
# The external bathing solution contained (in mM): 150 NaCl, 10 KCl, […], 3 MgCl2, 1 CaCl2, 10 HEPES, pH 7.4. Patch pipettes were filled with an electrode solution of composition (in mM): 160 KCl, 0.5 MgCl2, 10 HEPES, 1 EGTA, pH 7.4 with KOH.
# Compounds were dissolved in DMSO (100%) and made up in the external bather at a concentration of 1 μM. All experiments were conducted at room temperature (22-24° C.).
# A cell suspension (10 ml), with a density of 100,000 cells/ml, was aliquoted into a 15 ml centrifuge tube and transferred to an incubator (37° C., 5% CO2) for approximately one hour before use. Following 60 min incubation, a tube was taken and centrifuged at 1000 rpm for 4 mins at room temperature. 9.5 ml supernatant was thence discarded, leaving a cell pellet at the bottom of the tube. The pellet was then resuspended using 100 μl of cold (4° C.), filtered (0.22 μm), 0.2% BSA/bather solution (0.02 g BSA/10 ml bather). The bottom of the tube was manually agitated gently until the solution became cloudy with cells. The 100 μl cell resuspension solution was then stored on the bench at 4° C. (using a Peltier-based temperature control device) until used.
# A length of capillary glass (1B150F-4, WPI) was dipped into the cell suspension solution, such that ˜3 cm column of fluid was taken up by capillary action. A Ag/AgCl wire was dropped into the non-dipped end of the capillary also. The outside of the solution-filled end of the capillary was then dried and the capillary was loaded into the AutoPatch™.
# (§1) Borosilicate glass patch pipettes (from 1.5 mm OD, thin-walled filamented, GC150-TF capillary glass, Harvard) were pulled using a DMZ pipette puller (Zeitz Instruments), and were back-filled using the internal pipette solution, being careful that no bubbles remain at the tip or in the body of the pipette. Patch pipettes typically had resistances of 2.3-3.5 MΩ. Once filled, the pipette tip and a proportion of the shaft (˜15 mm) were dipped into Sigmacote (Sigma). The recording pipette was then loaded into the AutoPatch™ Automated patch-clamping was initiated by the operator, but thereafter AutoPatch.exe continued the experiment providing that pre-set conditions and criteria were satisfied.
# Whole cell patch-clamp recordings were made using the AutoPatch™ rig, which incorporated an EPC9 amplifier (HEKA, Germany) under control of Pulse software (v8.54, HEKA, Germany), a motion controller with 2 translators (Newport, UK), valve controller (VF1) and a c-level suction device all at room temperature (22-24° C.). This equipment was completely under the control of AutoPatch.exe and operator intervention was only made when there was a requirement to refill the drug reservoirs or to prevent the loss of a cell due to a technical error. Cells with an Rseries greater than 18 MΩ were discounted from the experiment.
# Qualification stages prior to perfusion and drug application ensured that the observed current met the criteria for the experiment. Only those cells with an IK>500 pA were used for experiments. Cells were continuously perfused with external solution at a flow rate of 1.8-2 ml/minute. […] Online analysis of the hKv1.5 current during the application of compounds was performed by the AutoPatch™ software. Voltage-step protocols and analysis of data was performed as described for conventional electrophysiology.
# Electrophysiology voltage-step protocols and analysis of data was performed as follows. Data was sampled at 5 kHz, and filtered with a −3 dB bandwidth of 2.5 kHz. Cells were held at a voltage of −80 mV. Currents were evoked to a voltage step for 1000 ms in duration at 0 mV every 5 s. Currents were analysed using Pulsefit software (v8.54, HEKA, Germany), with the total charge measured during the whole of the voltage step. All other plots were produced using Igor Pro (WaveMetrics).
# human Kv1.3 = molecular target: T1, human Kv1.3 (Homo sapiens, UniProt P22001); assay: Kv1.3 Autopatch electrophysiology (whole cell patch-clamp, inhibition of charge movement); type: cell-based; conditions: compound at 1 μM; cells stably transfected with human Kv1.3; room temperature; total charge during step to +30 mV relative to control; read-out: hKv1.3 % inh.
# T1 construct: expressed in transfected cells; host or cells: stably transfected cells grown in medium for CHO cells
# Protocol: Kv1.3 Autopatch Electrophysiology Method
# Compounds were tested on these cells using the AutoPatch technology in whole cell mode.
# The external bathing solution contained (in mM): 150 NaCl, 10 KCl, 1 MgCl2, 3 CaCl2, 10 HEPES, pH 7.4 with NaOH. Patch pipettes were filled with an electrode solution of composition (in mM): 100 K-Gluconate, 20 KCl, 1 MgCl2, 1 CaCl2, 10 HEPES, 11 EGTA, 5 ATP-Na2, 2 Glutathione pH 7.2 with KOH.
# Compounds were dissolved in DMSO (100%) and made up in the external bather at a concentration of 1 μM immediately prior to use. All experiments were conducted at room temperature.
# A cell suspension (10 ml), with a density of 6×10^6 cells, was aliquoted into a 15 ml centrifuge tube and stored at 4° C. before use. Prior to use a tube was taken and centrifuged at 1000 rpm for 4 mins at room temperature. The supernatant was then discarded, leaving a cell pellet at the bottom of the tube. The pellet was then resuspended using 1 ml of cold (4° C.), filtered (0.22 μm), 0.05% BSA/bather solution (0.05 g BSA/100 ml bather). The bottom of the tube was manually agitated followed by gentle tituration. The cell suspension was then placed in the AutoPatch™ temperature controlled cell-hotel at 14° C. and regularly titurated.
# as §1, with “A length of Teflon capillary tubing was dipped into the cell suspension solution, and a column of fluid was taken up by negative pressure. The column of fluid was in electrically connectivity with a Ag/AgCl reference electrode. Borosilicate” for “Borosilicate”, “remained” for “remain”, “2.5-3.5” for “2.3-3.5”, “pipettes were placed in a multiwell array and mounted on” for “pipette was then loaded into”, “AutoPatch™ machine.” for “AutoPatch™”, “patch-clamping and drug-application” for “patch-clamping”
# Whole cell patch-clamp recordings were made using the AutoPatch™ rig, which incorporated an EPC9 or EPC10 amplifier (HEKA, Germany) under control of Pulse software (v8.54 or v8.76, HEKA, Germany), a cell applicator, automated drug application system (DAS), valve controller (VF1) and a suction device all at room temperature. This equipment was completely under the control of AutoPatch.exe and operator intervention was only made when there was a requirement to refill the bather reservoirs or to prevent the loss of a cell due to a technical error.
# Cells were continuously perfused with external solution at a flow rate of ˜2 ml/minute.
# Electrophysiology voltage-step protocols and analysis of data was performed as follows. Data were sampled at 5 kHz, and filtered with a −3 dB bandwidth of 2.5 kHz. Cells were held at a voltage of −80 mV. Currents were evoked by a voltage step to +30 mV for 500 ms in duration applied every 15 s. Online analysis of the hKv1.3 current during the application of compounds was performed by the Pulse (v8.54 or v8.76, HEKA, Germany), Excel (Microsoft, USA) and AutoPatch™ software, with the total charge measured during the whole of voltage step. Inhibition of charge movement in the presence of drug was calculated relative to control.
# T1 sequence (P22001 whole entry): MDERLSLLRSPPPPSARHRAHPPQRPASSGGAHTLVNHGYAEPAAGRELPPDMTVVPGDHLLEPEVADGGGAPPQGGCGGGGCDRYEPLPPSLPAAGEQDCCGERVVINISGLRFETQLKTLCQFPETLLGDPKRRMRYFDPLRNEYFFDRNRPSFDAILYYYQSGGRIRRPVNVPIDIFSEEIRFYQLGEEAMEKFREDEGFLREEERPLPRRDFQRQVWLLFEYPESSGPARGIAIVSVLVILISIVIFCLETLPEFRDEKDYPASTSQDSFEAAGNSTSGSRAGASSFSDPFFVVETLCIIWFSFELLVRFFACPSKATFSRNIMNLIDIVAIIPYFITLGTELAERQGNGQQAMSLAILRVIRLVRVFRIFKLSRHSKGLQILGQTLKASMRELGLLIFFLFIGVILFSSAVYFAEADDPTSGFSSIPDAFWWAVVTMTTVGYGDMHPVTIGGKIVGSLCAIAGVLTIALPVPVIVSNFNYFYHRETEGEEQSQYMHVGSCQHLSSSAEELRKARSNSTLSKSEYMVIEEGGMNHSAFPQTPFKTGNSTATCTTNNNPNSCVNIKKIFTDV
# hKv1.5, sequence (P22460 whole entry): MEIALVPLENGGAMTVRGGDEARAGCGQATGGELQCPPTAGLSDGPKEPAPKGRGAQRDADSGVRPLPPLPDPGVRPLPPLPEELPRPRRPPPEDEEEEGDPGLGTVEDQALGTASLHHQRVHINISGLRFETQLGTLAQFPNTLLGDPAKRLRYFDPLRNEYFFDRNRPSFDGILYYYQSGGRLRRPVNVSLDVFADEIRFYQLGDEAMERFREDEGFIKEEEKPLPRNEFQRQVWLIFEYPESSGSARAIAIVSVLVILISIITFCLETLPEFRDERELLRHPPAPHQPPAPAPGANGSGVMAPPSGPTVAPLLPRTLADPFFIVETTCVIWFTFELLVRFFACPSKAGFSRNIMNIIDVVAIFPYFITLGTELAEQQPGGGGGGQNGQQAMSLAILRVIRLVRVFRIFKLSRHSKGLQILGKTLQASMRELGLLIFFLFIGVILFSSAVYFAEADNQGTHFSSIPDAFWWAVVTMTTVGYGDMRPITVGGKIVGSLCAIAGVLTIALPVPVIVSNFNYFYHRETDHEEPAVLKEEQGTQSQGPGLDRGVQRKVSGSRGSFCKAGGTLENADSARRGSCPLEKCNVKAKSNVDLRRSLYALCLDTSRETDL
structure (smiles),measurement,setting,value
"COc1ccc(S(=O)(=O)N(Cc2ccccc2)c2ccc(C(=O)N3CCN(c4ccccc4)CC3)cc2)cc1OC [Example 14, N-Benzyl-3,4-dimethoxy-N-[4-(4-phenyl-piperazine-1-carbonyl)-phenyl]-benzenesulfonamide]",inhibition at 1 µM,hKv1.5,61.3%
same,inhibition at 1 µM,human Kv1.3,69%
"Cn1cnc(S(=O)(=O)N(Cc2ccccc2)c2ccc(C(=O)N3CCOC(c4ccccc4)C3)cc2)c1 (centres unmarked) [Example 63, 1-Methyl-1H-imidazole-4-sulfonic acid benzyl-[4-(2-phenyl-morpholine-4-carbonyl)-phenyl]-amide]",inhibition at 1 µM,hKv1.5,74.4%
same,inhibition at 1 µM,human Kv1.3,93%
"COc1cc(N(Cc2ccccc2)S(=O)(=O)c2ccccc2)ccc1C(=O)N1CCN(c2ccccc2)CC1 [Example 54, N-Benzyl-N-[3-methoxy-4-(4-phenyl-piperazine-1-carbonyl)-phenyl]-benzenesulfonamide]",inhibition at 1 µM,hKv1.5,89.6%
same,inhibition at 1 µM,human Kv1.3,92%
"O=C(c1ccc(N(Cc2ccc(F)cc2)S(=O)(=O)c2ccccc2)cc1)N1CCN(c2ccccc2)CC1 [Example 12, N-(4-Fluoro-benzyl)-N-[4-(4-phenyl-piperazine-1-carbonyl)-phenyl]-benzenesulfonamide]",inhibition at 1 µM,hKv1.5,56.3%
same,inhibition at 1 µM,human Kv1.3,93%
"Cc1ccc(CN(c2ccc(C(=O)N3CCN(c4ccccc4)CC3)cc2)S(=O)(=O)c2ccccc2)cc1 [Example 35, N-(4-Methyl-benzyl)-N-[4-(4-phenyl-piperazine-1-carbonyl)-phenyl]-benzenesulfonamide]",inhibition at 1 µM,hKv1.5,68.9%
same,inhibition at 1 µM,human Kv1.3,56%
"COc1ccccc1CN(c1ccc(C(=O)N2CCN(c3ccccc3)CC2)cc1)S(=O)(=O)c1ccccc1 [Example 32, N-(2-Methoxy-benzyl)-N-[4-(4-phenyl-piperazine-1-carbonyl)-phenyl]-benzenesulfonamide]",inhibition at 1 µM,hKv1.5,44.2%
same,inhibition at 1 µM,human Kv1.3,68%
"COc1cccc(S(=O)(=O)N(Cc2ccccc2)c2ccc(C(=O)N3CCN(c4ccccc4)CC3)cc2)c1 [Example 28, N-Benzyl-3-methoxy-N-[4-(4-phenyl-piperazine-1-carbonyl)-phenyl]-benzenesulfonamide]",inhibition at 1 µM,hKv1.5,81.2%
same,inhibition at 1 µM,human Kv1.3,74%
"O=C(c1ccc(N(Cc2ccccc2)S(=O)(=O)c2ccc(F)cc2)cc1)N1CCN(c2ccccc2)CC1 [Example 19, N-Benzyl-4-fluoro-N-[4-(4-phenyl-piperazine-1-carbonyl)-phenyl]-benzenesulfonamide]",inhibition at 1 µM,hKv1.5,54.6%
same,inhibition at 1 µM,human Kv1.3,83%
"Cc1ccc(S(=O)(=O)N(Cc2ccccc2)c2ccc(C(=O)N3CCN(c4ccccc4)CC3)cc2)cc1 [Example 16, N-Benzyl-4-methyl-N-[4-(4-phenyl-piperazine-1-carbonyl)-phenyl]-benzenesulfonamide]",inhibition at 1 µM,hKv1.5,48.1%
same,inhibition at 1 µM,human Kv1.3,77%
"Cc1cc(C(=O)N2CCN(c3ccccc3)CC2)ccc1N(Cc1ccccc1)S(=O)(=O)c1cn(C)cn1 [Example 49, 1-Methyl-1H-imidazole-4-sulfonic acid benzyl-[2-methyl-4-(4-phenyl-piperazine-1-carbonyl)-phenyl]-amide]",inhibition at 1 µM,hKv1.5,50%
same,inhibition at 1 µM,human Kv1.3,76%
"Cn1cnc(S(=O)(=O)N(Cc2ccccc2)c2ccc(CN3CCN(c4ccccc4)CC3)cc2)c1 [Example 8, 1-Methyl-1H-imidazole-4-sulfonic acid benzyl-[4-(4-phenyl-piperazin-1-ylmethyl)-phenyl]-amide]",inhibition at 1 µM,hKv1.5,56.7%
same,inhibition at 1 µM,human Kv1.3,90%
"O=C(c1ccc(N(Cc2ccccc2)S(=O)(=O)c2cccc(Cl)c2)cc1)N1CCN(c2ccccc2)CC1 [Example 30, N-Benzyl-3-chloro-N-[4-(4-phenyl-piperazine-1-carbonyl)-phenyl]-benzenesulfonamide]",inhibition at 1 µM,hKv1.5,85.6%
same,inhibition at 1 µM,human Kv1.3,92%
"Cn1cnc(S(=O)(=O)N(Cc2ccc(F)cc2)c2ccc(C(=O)N3CCOC(c4ccccc4)C3)cc2)c1 (centres unmarked) [Example 66, 1-Methyl-1H-imidazole-4-sulfonic acid (4-fluoro-benzyl)-[4-(2-phenyl-morpholine-4-carbonyl)-phenyl]-amide]",inhibition at 1 µM,hKv1.5,69%
same,inhibition at 1 µM,human Kv1.3,55%
"Cc1nc(C)c(S(=O)(=O)N(Cc2ccccc2)c2ccc(C(=O)N3CCN(c4ccccc4)CC3)cc2)s1 [Example 48, 2,4-Dimethyl-thiazole-5-sulfonic acid benzyl-[4-(4-phenyl-piperazine-1-carbonyl)-phenyl]-amide]",inhibition at 1 µM,hKv1.5,49.3%
same,inhibition at 1 µM,human Kv1.3,79%
"O=C(c1ccc(N(Cc2ccccc2)S(=O)(=O)c2ccc3c(c2)OCCO3)cc1)N1CCN(c2ccccc2)CC1 [Example 15, 2,3-Dihydro-benzo[1,4]dioxine-6-sulfonic acid benzyl-[4-(4-phenyl-piperazine-1-carbonyl)-phenyl]-amide]",inhibition at 1 µM,hKv1.5,80.4%
same,inhibition at 1 µM,human Kv1.3,66%
"CC1(C)CCc2cc(S(=O)(=O)N(Cc3ccccc3)c3ccc(C(=O)N4CCN(c5ccccc5)CC4)cc3)ccc2O1 [Example 39, 2,2-Dimethyl-chroman-6-sulfonic acid benzyl-[4-(4-phenyl-piperazine-1-carbonyl)-phenyl]-amide]",inhibition at 1 µM,hKv1.5,58.9%
same,inhibition at 1 µM,human Kv1.3,47%
